Measurements reported in ChEMBL document CHEMBL5715952 (Oncotarget, 2015).
Activity calls are given as the source filed them. No cut-off for these calls is given here.

Assays:
[1] = tested on: ANBL-6; assay: Induction of apoptosis in wild-type human ANBL-6 cells assessed as early apoptosis at 20 nM incubated for 72 hrs by annexin V and 7-AAD staining by flow cytometry analysis (Rvb=14 %); type: functional
[2] = tested on: Proteasome; assay: Inhibition of proteasome in human RPMI-8226 cells assessed as reduction of cell growth incubated for 72 hrs by CellTiter 96 aqueous one solution cell proliferation assay; conditions: RPMI-8226, 72 h
[3] = tested on: Proteasome; assay: Ratio of IC50 for inhibition of proteasome in human RPMI-8226 cells assessed as reduction of cell viability to IC50 for inhibition of proteasome in human RPMI-8226/BR resistant cells assessed as reduction of cell viability; conditions: condition multiple myeloma
[4] = tested on: Bortezomib-resistant ANBL6; assay: Induction of apoptosis in human bortezomib-resistant ANBL6 cells assessed as early apoptosis at 20 nM incubated for 72 hrs by annexin V and 7-AAD staining by flow cytometry analysis (Rvb=15 %); type: functional
[5] = tested on: Bortezomib-resistant ANBL6; assay: Induction of apoptosis in human bortezomib-resistant ANBL6 cells assessed as viable at 20 nM incubated for 72 hrs by annexin V and 7-AAD staining by flow cytometry analysis (Rvb=80 %); type: functional
[6] = tested on: ANBL-6; assay: Induction of apoptosis in wild-type human ANBL-6 cells assessed as viable at 20 nM incubated for 72 hrs by annexin V and 7-AAD staining by flow cytometry analysis (Rvb=59 %); type: functional
[7] = tested on: Proteasome; assay: Inhibition of proteasome in human bortezomib-resistant ANBL6 cells assessed as reduction of cell growth incubated for 72 hrs by CellTiter 96 aqueous one solution cell proliferation assay
[8] = tested on: Proteasome; assay: Inhibition of proteasome in human ANBL-6 cells assessed as reduction of cell growth incubated for 72 hrs by CellTiter 96 aqueous one solution cell proliferation assay; conditions: ANBL-6, 72 h
[9] = tested on: ANBL-6; assay: Induction of apoptosis in wild-type human ANBL-6 cells assessed as late apoptosis at 20 nM incubated for 72 hrs by annexin V and 7-AAD staining by flow cytometry analysis (Rvb=26 %); type: functional
[10] = molecular target: T1, Bromodomain and extra-terminal motif (BET) (Homo sapiens) (UniProt P25440+O60885+Q58F21+Q15059); assay: Inhibition of BET in human bortezomib-resistant ANBL6 cells assessed as increase in protein NOXA expression level at 20 nM by immunoblot analysis; type: cell-based; conditions: Bortezomib-resistant ANBL6 cell
[11] = molecular target: T1, Bromodomain and extra-terminal motif (BET) (Homo sapiens); assay: Inhibition of BET in human bortezomib-resistant ANBL6 cells assessed as change in protein MYC expression level at 20 nM by immunoblot analysis; type: cell-based; conditions: Bortezomib-resistant ANBL6 cell
[12] = tested on: Proteasome; assay: Inhibition of proteasome in human U-266 cells assessed as reduction of cell growth incubated for 72 hrs by CellTiter 96 aqueous one solution cell proliferation assay; conditions: U-266, 72 h
[13] = molecular target: T1, Bromodomain and extra-terminal motif (BET) (Homo sapiens); assay: Inhibition of BET in human ANBL-6 WT cells assessed as change in protein MYC expression level at 20 nM by immunoblot analysis; type: cell-based
[14] = tested on: Proteasome; assay: Inhibition of proteasome in bortezomib Resistant human RPMI-8226 cells assessed as reduction of cell growth incubated for 72 hrs by CellTiter 96 aqueous one solution cell proliferation assay; conditions: Bortezomib-resistant RPMI-8226, 72 h
[15] = molecular target: T1, Bromodomain and extra-terminal motif (BET) (Homo sapiens); assay: Inhibition of BET in human ANBL-6 WT cells assessed as increase in protein NOXA expression level at 20 nM by immunoblot analysis; type: cell-based
[16] = tested on: Proteasome; assay: Ratio of IC50 for inhibition of proteasome in human ANBL6 cells assessed as reduction of cell viability to IC50 for inhibition of proteasome in human ANBL6/BR resistant cells assessed as reduction of cell viability; conditions: condition multiple myeloma
[17] = tested on: Proteasome; assay: Inhibition of proteasome in Melphalan Resistant human RPMI-8226 cells assessed as reduction of cell growth incubated for 72 hrs by CellTiter 96 aqueous one solution cell proliferation assay; conditions: Melphalan-resistant RPMI-8226 cell
[18] = tested on: Bortezomib-resistant ANBL6; assay: Induction of apoptosis in human bortezomib-resistant ANBL6 cells assessed as late apoptosis at 20 nM incubated for 72 hrs by annexin V and 7-AAD staining by flow cytometry analysis (Rvb=5 %); type: functional
[19] = Ratio of IC50 for inhibition of FLT3/cKIT/FGFR1/VEGFR3/PDGFR/CSF1R in human RPMI-8226 cells assessed as reduction of cell viability to IC50 for inhibition of FLT3/cKIT/FGFR1/VEGFR3/PDGFR/CSF1R in human RPMI-8226/BR resistant cells assessed as reduction of cell viability; conditions: condition multiple myeloma
[20] = Ratio of IC50 for inhibition of FLT3/cKIT/FGFR3/VEGFR1/PDGFR/CSF1R in human RPMI-8226 cells assessed as reduction of cell viability to IC50 for inhibition of FLT3/cKIT/FGFR3/VEGFR1/PDGFR/CSF1R in human melphalan-resistant RPMI-8226 cells assessed as reduction of cell viability; conditions: time 72 hrs; condition multiple myeloma
[21] = Ratio of IC50 for inhibition of FLT3/cKIT/FGFR3/VEGFR1/PDGFR/CSF1R in human ANBL6 cells assessed as reduction of cell viability to IC50 for inhibition of FLT3/cKIT/FGFR3/VEGFR1/PDGFR/CSF1R in human ANBL6/BR resistant cells assessed as reduction of cell viability; conditions: condition multiple myeloma
[22] = Ratio of IC50 for inhibition of FLT3/cKIT/FGFR3/VEGFR3/PDGFR/CSF1R in human RPMI-8226 cells assessed as reduction of cell viability to IC50 for inhibition of FLT3/cKIT/FGFR3/VEGFR3/PDGFR/CSF1R in human melphalan-resistant RPMI-8226 cells assessed as reduction of cell viability; conditions: time 72 hrs; condition multiple myeloma
[23] = Ratio of IC50 for inhibition of FLT3/cKIT/FGFR3/VEGFR1/PDGFR/CSF1R in human RPMI-8226 cells assessed as reduction of cell viability to IC50 for inhibition of FLT3/cKIT/FGFR3/VEGFR1/PDGFR/CSF1R in human RPMI-8226/BR resistant cells assessed as reduction of cell viability; conditions: condition multiple myeloma
[24] = Ratio of IC50 for inhibition of FLT3/cKIT/FGFR1/VEGFR3/PDGFR/CSF1R in human ANBL6 cells assessed as reduction of cell viability to IC50 for inhibition of FLT3/cKIT/FGFR1/VEGFR3/PDGFR/CSF1R in human ANBL6/BR resistant cells assessed as reduction of cell viability; conditions: condition multiple myeloma
[25] = tested on: U-266; assay: cells; conditions: Homo sapiens, U-266, 72 h
[26] = tested on: Bortezomib-resistant ANBL6; assay: cells; conditions: Homo sapiens, Bortezomib-resistant ANBL6, 72 h
[27] = Ratio of IC50 for inhibition of FLT3/cKIT/FGFR3/VEGFR2/PDGFR/CSF1R in human RPMI-8226 cells assessed as reduction of cell viability to IC50 for inhibition of FLT3/cKIT/FGFR3/VEGFR2/PDGFR/CSF1R in human melphalan-resistant RPMI-8226 cells assessed as reduction of cell viability; conditions: time 72 hrs; condition multiple myeloma
[28] = Ratio of IC50 for inhibition of FLT3/cKIT/FGFR1/VEGFR2/PDGFR/CSF1R in human RPMI-8226 cells assessed as reduction of cell viability to IC50 for inhibition of FLT3/cKIT/FGFR1/VEGFR2/PDGFR/CSF1R in human melphalan-resistant RPMI-8226 cells assessed as reduction of cell viability; conditions: time 72 hrs; condition multiple myeloma
[29] = cells; conditions: Homo sapiens, Melphalan-resistant RPMI-8226 cell, 72 h
[30] = cells; conditions: Homo sapiens, Bortezomib-resistant RPMI-8226, 72 h
[31] = Ratio of IC50 for inhibition of FLT3/cKIT/FGFR1/VEGFR2/PDGFR/CSF1R in human ANBL6 cells assessed as reduction of cell viability to IC50 for inhibition of FLT3/cKIT/FGFR1/VEGFR2/PDGFR/CSF1R in human ANBL6/BR resistant cells assessed as reduction of cell viability; conditions: condition multiple myeloma
[32] = Ratio of IC50 for inhibition of FLT3/cKIT/FGFR3/VEGFR3/PDGFR/CSF1R in human ANBL6 cells assessed as reduction of cell viability to IC50 for inhibition of FLT3/cKIT/FGFR3/VEGFR3/PDGFR/CSF1R in human ANBL6/BR resistant cells assessed as reduction of cell viability; conditions: condition multiple myeloma
[33] = tested on: RPMI-8226; assay: Cytotoxicity against human RPMI-8226 cells assessed as reduction of cell growth incubated for 72 hrs by CellTiter 96 aqueous one solution cell proliferation assay; type: functional, cell-based; conditions: RPMI-8226, 72 h
[34] = Ratio of IC50 for inhibition of FLT3/cKIT/FGFR1/VEGFR2/PDGFR/CSF1R in human RPMI-8226 cells assessed as reduction of cell viability to IC50 for inhibition of FLT3/cKIT/FGFR1/VEGFR2/PDGFR/CSF1R in human RPMI-8226/BR resistant cells assessed as reduction of cell viability; conditions: condition multiple myeloma
[35] = Ratio of IC50 for inhibition of FLT3/cKIT/FGFR1/VEGFR1/PDGFR/CSF1R in human ANBL6 cells assessed as reduction of cell viability to IC50 for inhibition of FLT3/cKIT/FGFR1/VEGFR1/PDGFR/CSF1R in human ANBL6/BR resistant cells assessed as reduction of cell viability; conditions: condition multiple myeloma
[36] = Ratio of IC50 for inhibition of FLT3/cKIT/FGFR1/VEGFR1/PDGFR/CSF1R in human RPMI-8226 cells assessed as reduction of cell viability to IC50 for inhibition of FLT3/cKIT/FGFR1/VEGFR1/PDGFR/CSF1R in human melphalan-resistant RPMI-8226 cells assessed as reduction of cell viability; conditions: time 72 hrs; condition multiple myeloma
[37] = Ratio of IC50 for inhibition of FLT3/cKIT/FGFR1/VEGFR3/PDGFR/CSF1R in human RPMI-8226 cells assessed as reduction of cell viability to IC50 for inhibition of FLT3/cKIT/FGFR1/VEGFR3/PDGFR/CSF1R in human melphalan-resistant RPMI-8226 cells assessed as reduction of cell viability; conditions: time 72 hrs; condition multiple myeloma
[38] = Ratio of IC50 for inhibition of FLT3/cKIT/FGFR3/VEGFR2/PDGFR/CSF1R in human ANBL6 cells assessed as reduction of cell viability to IC50 for inhibition of FLT3/cKIT/FGFR3/VEGFR2/PDGFR/CSF1R in human ANBL6/BR resistant cells assessed as reduction of cell viability; conditions: condition multiple myeloma
[39] = Ratio of IC50 for inhibition of FLT3/cKIT/FGFR1/VEGFR1/PDGFR/CSF1R in human RPMI-8226 cells assessed as reduction of cell viability to IC50 for inhibition of FLT3/cKIT/FGFR1/VEGFR1/PDGFR/CSF1R in human RPMI-8226/BR resistant cells assessed as reduction of cell viability; conditions: condition multiple myeloma
[40] = Ratio of IC50 for inhibition of FLT3/cKIT/FGFR3/VEGFR2/PDGFR/CSF1R in human RPMI-8226 cells assessed as reduction of cell viability to IC50 for inhibition of FLT3/cKIT/FGFR3/VEGFR2/PDGFR/CSF1R in human RPMI-8226/BR resistant cells assessed as reduction of cell viability; conditions: condition multiple myeloma
[41] = Ratio of IC50 for inhibition of FLT3/cKIT/FGFR3/VEGFR3/PDGFR/CSF1R in human RPMI-8226 cells assessed as reduction of cell viability to IC50 for inhibition of FLT3/cKIT/FGFR3/VEGFR3/PDGFR/CSF1R in human RPMI-8226/BR resistant cells assessed as reduction of cell viability; conditions: condition multiple myeloma
[42] = tested on: ANBL-6; assay: cells; conditions: Homo sapiens, ANBL-6, 72 h

## CC(C)C[C@H](NC(=O)[C@H](Cc1ccccc1)NC(=O)c1cnccn1)B(O)O [BORTEZOMIB]
[1]
  Activity: 71%
[2]
  IC50: […]
[3]
  Ratio IC50: […]
[4]
  Activity: 45%
[5]
  Activity: 49%
[6]
  Activity: 7%
[7]
  IC50: […]
[8]
  IC50: […]
[9]
  Activity: 22%
[10]
  inhibition: Active
[11]
  inhibition: inactive
[12]
  IC50: […]
[13]
  inhibition: inactive
[14]
  IC50: […]
[15]
  inhibition: Active
[16]
  Ratio IC50: […]
[17]
  IC50: […]
[18]
  Activity: 6%

## CN1CCN(c2ccc3nc(-c4c(N)c5c(F)cccc5[nH]c4=O)[nH]c3c2)CC1 [DOVITINIB]
[19]
  Ratio IC50: 0.38
[20]
  Ratio IC50: 2.6
[21]
  Ratio IC50: 1.51
[22]
  Ratio IC50: 2.6
[23]
  Ratio IC50: 0.38
[24]
  Ratio IC50: 1.51
[25]
  IC50: 6760 nM
[26]
  IC50: 6610 nM
[27]
  Ratio IC50: 2.6
[28]
  Ratio IC50: 2.6
[29]
  IC50: 2950 nM
[30]
  IC50: 5620 nM
[31]
  Ratio IC50: 1.51
[32]
  Ratio IC50: 1.51
[33]
  IC50: 2140 nM
[34]
  Ratio IC50: 0.38
[35]
  Ratio IC50: 1.51
[36]
  Ratio IC50: 2.6
[37]
  Ratio IC50: 2.6
[38]
  Ratio IC50: 1.51
[39]
  Ratio IC50: 0.38
[40]
  Ratio IC50: 0.38
[41]
  Ratio IC50: 0.38
[42]
  IC50: 10000 nM
